Test results taken from publication PMC7023430, “4-Aminobenzoic Acid Derivatives: Converting Folate Precursor to Antimicrobial and Cytotoxic Agents” (Biomolecules, 2019).
Values after ≈ are worked out from the molar mass of the structure shown. Like-named read-outs stand apart in the source and are kept apart here.

What was measured:
[1] = system: Staphylococcus aureus ATCC 29213, CCM 4223; assay: Antibacterial microdilution broth method, S. aureus; format: cell-based
[2] = system: Staphylococcus epidermidis H 6966/08; assay: Antibacterial microdilution broth method, S. epidermidis; format: cell-based; conditions: Staphylococcus epidermidis, H6966/08, S. epidermidis
[3] = system: Enterococcus faecalis ATCC 29212, CCM 4224; assay: Antibacterial microdilution broth method, E. faecalis; format: cell-based; conditions: Enterococcus faecalis
[4] = system: Escherichia coli ATCC 25922, CCM 3954; assay: Antibacterial microdilution broth method, E. coli; format: cell-based; conditions: Escherichia coli
[5] = system: Pseudomonas aeruginosa ATCC 27853, CCM 3955; assay: Antibacterial microdilution broth method, P. aeruginosa; format: cell-based; conditions: Pseudomonas aeruginosa, P. aeruginosa
[6] = system: Mycobacterium tuberculosis H37Rv (331/88); assay: Antimycobacterial micromethod in Šula's medium, M. tuberculosis; format: cell-based
[7] = system: Mycobacterium avium 330/88; assay: Antimycobacterial micromethod in Šula's medium, M. avium; format: cell-based
[8] = system: M. kansasii 6509/96 (clinical isolate); assay: Antimycobacterial micromethod in Šula's medium, M. kansasii 6509/96; format: cell-based; conditions: Mycobacterium kansasii
[9] = system: Candida albicans ATCC 44859; assay: Antifungal microdilution broth method, C. albicans; format: cell-based
In short: (§1)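 Panel covers five yeasts and three filamentous fungi tested by a slightly modified EUCAST microdilution protocol. Growth medium is glucose-supplemented (2%) RPMI-1640 with L-glutamine at pH 7.0 (MOPS). Endpoints are judged visually from duplicate runs.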

Candida tropicalis 156 = assay: Antifungal microdilution broth method, C. tropicalis; format: cell-based
In short: as §1

Candida krusei E28 = assay: Antifungal microdilution broth method, C. krusei; format: cell-based; conditions: Pichia kudriavzevii
In short: as §1

Trichosporon asahii 1188 = assay: Antifungal microdilution broth method, T. asahii; format: cell-based
In short: as §1

[10] = system: Aspergillus fumigatus 231; assay: Antifungal microdilution broth method, A. fumigatus; format: cell-based
In short: as §1

[11] = system: Lichtheimia corymbifera 272; assay: Antifungal microdilution broth method, L. corymbifera; format: cell-based
In short: as §1

[12] = system: Trichophyton interdigitale 445; assay: Antifungal microdilution broth method, T. interdigitale; format: cell-based
In short: as §1

HepG2 cells = assay: Cytotoxicity, CellTiter 96 assay; format: cell-based, human; conditions: Homo sapiens, HepG2, 24 h, 24 h incubation
In short: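 HepG2 cells (10,000/well) exposed 24 h at 37 °C, 5% CO2 to compounds in DMSO (≤1% v/v final), triplicates. Viability by tetrazolium-to-formazan reduction (CellTiter 96 AQueous One), absorbance 490 nm after 2 h. IC50 from nonlinear regression versus untreated controls; 10% DMSO defined 0% viability.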

[13] = system: ESBL-positive Klebsiella pneumoniae J 14368/08
[14] = 24 h incubation, read-out: MIC SA 24 h
[15] = 48 h incubation, read-out: MIC SA 48 h
[16] = 24 h incubation, read-out: MIC SE 24 h
[17] = 48 h incubation, read-out: MIC SE 48 h
[18] = 24 h incubation, read-out: MIC EF 24 h
[19] = 48 h incubation, read-out: MIC EF 48 h
[20] = 24 h incubation, read-out: MIC EC 24 h
[21] = 48 h incubation, read-out: MIC EC 48 h
[22] = 24 h incubation, read-out: MIC PA 24 h
[23] = 48 h incubation, read-out: MIC PA 48 h
[24] = 336 h, 14 days incubation at 37 °C, read-out: MIC Mtb. 331/88 14 d
[25] = 504 h, 21 days incubation at 37 °C, read-out: MIC Mtb. 331/88 21 d
[26] = 330/88, 336 h, 14 days incubation at 37 °C, read-out: MIC M. avium 330/88 14 d
[27] = 330/88, 504 h, 21 days incubation at 37 °C, read-out: MIC M. avium 330/88 21 d
[28] = 168 h, 7 days incubation at 37 °C, read-out: MIC M. kansasii 6509/96 7 d
[29] = 336 h, 14 days incubation at 37 °C, read-out: MIC M. kansasii 6509/96 14 d
[30] = 504 h, 21 days incubation at 37 °C, read-out: MIC M. kansasii 6509/96 21 d
[31] = ATCC44859, 24 h, read-out: MIC CA 24 h
[32] = ATCC44859, 48 h, read-out: MIC CA 48 h

## O=C(O)c1ccc(N=Cc2cc(Cl)cc(Cl)c2O)cc1 [1n, 4-[(3,5-Dichloro-2-hydroxybenzylidene)amino]benzoic acid]
[1]; [14]
  MIC: 125 µM (≈ 38.8 µg/mL)
[1]; [15]
  MIC: 125 µM (≈ 38.8 µg/mL)
[2]; [16]
  MIC: 250 µM (≈ 77.5 µg/mL)
[2]; [17]
  MIC: 250 µM (≈ 77.5 µg/mL)
[3]; [18]
  MIC: > 500 µM
[3]; [19]
  MIC: > 500 µM
[4]; [20]
  MIC: > 500 µM
[4]; [21]
  MIC: > 500 µM
[5]; [22]
  MIC: > 500 µM
[5]; [23]
  MIC: > 500 µM
[6]; [24]
  MIC: 500 µM (≈ 155 µg/mL)
[6]; [25]
  MIC: 500 µM (≈ 155 µg/mL)
[7]; [26]
  MIC: 1000 µM (≈ 310 µg/mL)
[7]; [27]
  MIC: 1000 µM (≈ 310 µg/mL)
[8]; [28]
  MIC: 250 µM (≈ 77.5 µg/mL)
[8]; [29]
  MIC: 500 µM (≈ 155 µg/mL)
[8]; [30]
  MIC: 500 µM (≈ 155 µg/mL)
[9]; [31]
  MIC: 125 µM (≈ 38.8 µg/mL)
[9]; [32]
  MIC: 125 µM (≈ 38.8 µg/mL)
Candida tropicalis 156; 24 h, read-out: MIC CT 24 h
  MIC: 250 µM (≈ 77.5 µg/mL)
Candida tropicalis 156; 48 h, read-out: MIC CT 48 h
  MIC: 250 µM (≈ 77.5 µg/mL)
Candida krusei E28; 24 h, read-out: MIC CK 24 h
  MIC: 125 µM (≈ 38.8 µg/mL)
Candida krusei E28; 48 h, read-out: MIC CK 48 h
  MIC: 125 µM (≈ 38.8 µg/mL)
Trichosporon asahii 1188; 24 h, read-out: MIC TA 24 h
  MIC: 125 µM (≈ 38.8 µg/mL)
Trichosporon asahii 1188; 48 h, read-out: MIC TA 48 h
  MIC: 125 µM (≈ 38.8 µg/mL)
[10]; 24 h, read-out: MIC AF 24 h
  MIC: 500 µM (≈ 155 µg/mL)
[10]; 48 h, read-out: MIC AF 48 h
  MIC: 500 µM (≈ 155 µg/mL)
[11]; 24 h, read-out: MIC LC 24 h
  MIC: 500 µM (≈ 155 µg/mL)
[11]; 48 h, read-out: MIC LC 48 h
  MIC: 500 µM (≈ 155 µg/mL)
[12]; 72 h, read-out: MIC TI 72 h
  MIC: 250 µM (≈ 77.5 µg/mL)
[12]; 120 h, read-out: MIC TI 120 h
  MIC: 250 µM (≈ 77.5 µg/mL)
HepG2 cells
  IC50: 98.7 µM
[13]
  MIC KP-E 24 h: >500 µM
  MIC KP-E 48 h: >500 µM

## O=C(O)c1ccc(N=Cc2cc(Cl)cc(Br)c2O)cc1 [1o, 4-[(3-Bromo-5-chloro-2-hydroxybenzylidene)amino]benzoic acid]
[1]; [14]
  MIC: 15.6 µM (≈ 5.54 µg/mL)
[1]; [15]
  MIC: 15.6 µM (≈ 5.54 µg/mL)
[2]; [16]
  MIC: 15.6 µM (≈ 5.54 µg/mL)
[2]; [17]
  MIC: 31.2 µM (≈ 11.1 µg/mL)
[3]; [18]
  MIC: 62.5 µM (≈ 22.2 µg/mL)
[3]; [19]
  MIC: 62.5 µM (≈ 22.2 µg/mL)
[4]; [20]
  MIC: 500 µM (≈ 177 µg/mL)
[4]; [21]
  MIC: 500 µM (≈ 177 µg/mL)
[5]; [22]
  MIC: > 500 µM
[5]; [23]
  MIC: > 500 µM
[6]; [24]
  MIC: 250 µM (≈ 88.6 µg/mL)
[6]; [25]
  MIC: 500 µM (≈ 177 µg/mL)
[7]; [26]
  MIC: 500 µM (≈ 177 µg/mL)
[7]; [27]
  MIC: 500 µM (≈ 177 µg/mL)
[8]; [28]
  MIC: 500 µM (≈ 177 µg/mL)
[8]; [29]
  MIC: 500 µM (≈ 177 µg/mL)
[8]; [30]
  MIC: 500 µM (≈ 177 µg/mL)
[9]; [31]
  MIC: 31.2 µM (≈ 11.1 µg/mL)
[9]; [32]
  MIC: 31.2 µM (≈ 11.1 µg/mL)
Candida tropicalis 156; 24 h, read-out: MIC CT 24 h
  MIC: 62.5 µM (≈ 22.2 µg/mL)
Candida tropicalis 156; 48 h, read-out: MIC CT 48 h
  MIC: 62.5 µM (≈ 22.2 µg/mL)
Candida krusei E28; 24 h, read-out: MIC CK 24 h
  MIC: 62.5 µM (≈ 22.2 µg/mL)
Candida krusei E28; 48 h, read-out: MIC CK 48 h
  MIC: 62.5 µM (≈ 22.2 µg/mL)
Trichosporon asahii 1188; 24 h, read-out: MIC TA 24 h
  MIC: 31.2 µM (≈ 11.1 µg/mL)
Trichosporon asahii 1188; 48 h, read-out: MIC TA 48 h
  MIC: 31.2 µM (≈ 11.1 µg/mL)
[10]; 24 h, read-out: MIC AF 24 h
  MIC: 250 µM (≈ 88.6 µg/mL)
[10]; 48 h, read-out: MIC AF 48 h
  MIC: 250 µM (≈ 88.6 µg/mL)
[11]; 24 h, read-out: MIC LC 24 h
  MIC: 500 µM (≈ 177 µg/mL)
[11]; 48 h, read-out: MIC LC 48 h
  MIC: 500 µM (≈ 177 µg/mL)
[12]; 72 h, read-out: MIC TI 72 h
  MIC: 62.5 µM (≈ 22.2 µg/mL)
[12]; 120 h, read-out: MIC TI 120 h
  MIC: 62.5 µM (≈ 22.2 µg/mL)
HepG2 cells
  IC50: 85.7 µM
[13]
  MIC KP-E 24 h: 500 µM (≈ 177 µg/mL)
  MIC KP-E 48 h: 500 µM (≈ 177 µg/mL)
